Conditions: Liquid; for vapor or sublimation pressure: Ebulliometric method (Recirculating still); for mass density / viscosity: 101.3 kPa; for mass density: Vibrating tube method; for viscosity: Falling or rolling sphere viscometry

Clc1ccccc1Cl [1,2-dichlorobenzene]
Conditions	vapor or sublimation pressure [kPa]
360.41 K	4.86
377.35 K	9.95
388.41 K	14.98
396.96 K	20.04
403.4 K	24.99
408.91 K	30
414.16 K	35.02
418.75 K	40.02
422.87 K	45.05
429.99 K	55.03
433.29 K	59.97
438.87 K	69.93
443.92 K	79.98
448.94 K	90.2
451.11 K	95.11
452.62 K	98.36

CCCCC#N [pentanenitrile]
Conditions	mass density [kg/m3]	vapor or sublimation pressure [kPa]	viscosity [mPa·s]
283.15 K	807.7	–	–
293.15 K	799.1	–	0.7191
303.15 K	790.4	–	–
313.15 K	781.7	–	0.5654
323.15 K	772.9	–	–
329.35 K	–	5	–
333.15 K	764.2	–	0.4567
344.89 K	–	9.9	–
345.13 K	–	10	–
362.77 K	–	20	–
374.08 K	–	30	–
386.22 K	–	45	–
395.4 K	–	60	–
407.76 K	–	86.4	–
411.12 K	–	95	–
412.96 K	–	100	–

— the NIST ThermoML archive (doi:10.1021/acs.jced.8b00590)
